{
  "source": "patent US7851623B2",
  "about": "“Chemical process” (AstraZeneca AB, priority 2006, dated 2010)",
  "key": {"HUVEC [1]": {"test_system": "HUVEC", "test": "HUVEC assay, VEGF-stimulated endothelial cell proliferation", "format": "cell-based", "conditions": "Homo sapiens, read-out: IC50 for inhibition of VEGF-stimulated endothelial cell proliferation"}, "HUVEC [2]": {"test_system": "HUVEC", "test": "HUVEC assay, basal endothelial cell proliferation", "format": "cell-based", "conditions": "Homo sapiens, basal (unstimulated) proliferation, read-out: IC50 for inhibition of basal endothelial cell proliferation"}, "Calu-6 tumour xenograft": {"test_system": "Calu-6 tumour xenograft", "test": "in vivo solid tumour model (WO 00/47212), Calu-6 tumour xenograft growth", "conditions": "once-daily oral, 28 days"}, "tumour models": {"test_system": "tumour models", "conditions": "once-daily oral administration; cited from earlier work"}},
  "data": [
    {"smiles": "COc1cc2c(Oc3ccc4[nH]c(C)cc4c3F)ncnc2cc1OCCCN1CCCC1", "note": "[AZD2171, 4-[(4-fluoro-2-methyl-1H-indol-5-yl)oxy]-6-methoxy-7-[3-(pyrrolidin-1-yl)propoxy]quinazoline]", "values": [
      {"measurement": "IC50", "setting": "HUVEC [1]", "result": "0.4 ± 0.2", "unit": "nM"},
      {"measurement": "IC50", "setting": "HUVEC [2]", "result": "> 500", "unit": "nM"},
      {"measurement": "inhibition of growth of Calu-6 tumour xenograft", "setting": "Calu-6 tumour xenograft; 1.5 mg/kg/day, P<0.01 one-tailed t test", "result": 49, "unit": "%"},
      {"measurement": "inhibition of growth of Calu-6 tumour xenograft", "setting": "Calu-6 tumour xenograft; 3 mg/kg/day, P<0.0001 one-tailed t test", "result": 69, "unit": "%"},
      {"measurement": "inhibition of growth of Calu-6 tumour xenograft", "setting": "Calu-6 tumour xenograft; 6 mg/kg/day, P<0.0001 one-tailed t test", "result": 91, "unit": "%"},
      {"measurement": "anti-tumour activity in a range of models", "setting": "tumour models", "result": "broad-spectrum anti-tumour activity"}
    ]}
  ]
}
